Test results taken from paper PMC5513091, “A novel Alzheimer’s disease drug candidate targeting inflammation and fatty acid metabolism” (Alzheimer's Research & Therapy, 2017).
pEC50: −log10 of the molar value.

Tests used:
CYP 3A4 = CYP 3A4 (Homo sapiens, UniProt P08684); test: CYP inhibition; type: in vitro ADME
[1] = system: Primary embryonic day 18 cortical cells; test: Trophic factor withdrawal assay; type: cell-based; settings: Cortical neurone; Cortical neuron; cell viability; read-out: Half-maximal effective concentration, Trophic factor withdrawal
Description: The various phenotypic screening assays were conducted as previously described. Briefly, HT-22, primary cortical neurons, or MC65 was plated and exposed to the different environmental stresses. Cells were treated with varying concentrations of CAD-31, and half-maximal effective concentration (EC50) was determined on the basis of cell viability.
• An assay that mimics the dramatic loss of neurotrophic support in the old brain is the trophic factor withdrawal assay. Primary embryonic day 18 cortical cells are plated at low density in serum-free medium. At low density, the cells die within 2 days; they can be rescued by combinations of neurotrophic growth factors, but not by one alone ([19] and unpublished data). […] BDNF is a molecule that is also involved in promoting memory and neurogenesis and is reduced in the brain with age and in AD, as well as in other neurological disorders. BDNF has long been considered a drug target for AD [23]. […] A reduction in GSH is a common denominator of old age and essentially all chronic central nervous system (CNS) diseases. J147 and CAD-31 both effectively reduce oxidative stress, with EC50 of 6 nM and 20 nM, respectively. • CAD-31 also prevents loss of energy metabolism that leads to neuron cell death in an in vitro ischemia model. […]

Sequence of CYP 3A4 (P08684 whole entry): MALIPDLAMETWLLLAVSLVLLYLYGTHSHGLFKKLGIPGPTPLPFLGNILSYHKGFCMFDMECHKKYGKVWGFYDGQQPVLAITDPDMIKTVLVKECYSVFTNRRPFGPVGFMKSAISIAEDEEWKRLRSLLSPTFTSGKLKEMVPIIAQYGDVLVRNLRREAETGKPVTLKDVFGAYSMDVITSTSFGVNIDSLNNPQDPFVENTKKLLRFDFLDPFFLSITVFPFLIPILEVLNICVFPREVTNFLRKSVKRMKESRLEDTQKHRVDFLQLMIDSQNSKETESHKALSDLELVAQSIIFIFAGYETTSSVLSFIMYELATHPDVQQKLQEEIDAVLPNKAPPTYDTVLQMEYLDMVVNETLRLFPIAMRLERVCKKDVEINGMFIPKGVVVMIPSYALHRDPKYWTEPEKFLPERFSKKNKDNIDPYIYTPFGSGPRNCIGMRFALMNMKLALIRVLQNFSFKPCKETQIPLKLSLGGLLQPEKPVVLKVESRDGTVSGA

Work on Cc1ccc(N(/N=C/c2cccc(OC(F)(F)F)c2)C(=O)C(F)(F)F)c(C)c1 [CAD-31] yielded an EC50 at 10 µM (CYP 3A4) greater than 10000 nM and a pEC50 [1] of 7.74.
